Assay results taken from patent US20120324604A1, “PESTICIDAL MIXTURES CONTAINING ISOXAZOLINE DERIVATIVES AND A FUNGICIDE” (priority 2010, published 2012).

Experiments:
Format in all cases: cell-based
[1] = system: Mycosphaerella arachidis (syn. Cercospora arachidicola); assay: Mycosphaerella arachidis (Brown Leaf Spot of Groundnut) growth inhibition, microtiter plate, photometric; details: alone
Protocol: Mycosphaerella arachidis (syn. Cercospora arachidicola), Brown Leaf Spot of Groundnut (Peanut):
(§1) Conidia of the fungus from cryogenic storage were directly mixed into nutrient broth (potato dextrose broth). After placing a (DMSO) solution of the test compounds into a microtiter plate (96-well format) the nutrient broth containing the fungal spores was added.

[2] = system: Glomerella lagenarium (syn. Colletotrichum lagenarium); assay: Glomerella lagenarium (Anthracnose of Cucurbits) growth inhibition, microtiter plate, photometric; details: alone
Protocol: Glomerella lagenarium (syn. Colletotrichum lagenarium), Anthracnose of Cucurbits:
as §1

[3] = system: Gaeumannomyces graminis; assay: Gaeumannomyces graminis growth inhibition, microtiter plate, photometric
Protocol: Mycelial fragments of the fungus from cryogenic storage were directly mixed into nutrient broth (potato dextrose broth). After placing a (DMSO) solution of the test compounds into a microliter plate (96-well format) the nutrient broth containing the fungal spores was added.

[4] = system: Septoria tritici; assay: Septoria tritici (Leaf Blotch) growth inhibition, microtiter plate, photometric; details: for AVERAGE DEAD IN % A5: A5 alone; for AVERAGE DEAD IN %: alone; for AVERAGE DEAD IN % A6: A6 alone
Protocol: Septoria tritici (Leaf Blotch):
as §1

[5] = system: Rhizoctonia solani; assay: Rhizoctonia solani (Foot Rot, Damping-Off) growth inhibition, microtiter plate, photometric
Protocol: Rhizoctonia solani (Foot Rot, Damping-Off):
Mycelial fragments of the fungus from cryogenic storage were directly mixed into nutrient broth (potato dextrose broth). After placing a (DMSO) solution of the test compounds into a microtiter plate (96-well format) the nutrient broth containing the fungal spores was added.

[6] = system: Pythium ultimum; assay: Pythium ultimum (Damping Off) growth inhibition, microtiter plate, photometric
Protocol: Pythium ultimum (Damping Off):
Mycelial fragments of the fungus, prepared from a fresh liquid culture, were directly mixed into nutrient broth (potato dextrose broth). After placing a (DMSO) solution of the test compounds into a microtiter plate (96-well format) the nutrient broth containing the fungal spores was added.

[7] = system: Fusarium culmorum; assay: Fusarium culmorum (Root Rot) growth inhibition, microtiter plate, photometric
Protocol: Fusarium culmorum (Root Rot):
as §1

[8] = single compound at 0.0390625 ppm AI
[9] = single compound at 0.078125 ppm AI
[10] = single compound at 0.15625 ppm AI
[11] = single compound at 0.3125 ppm AI
[12] = single compound at 0.625 ppm AI
[13] = applied alone, 0.0390625 ppm AI
[14] = single compound, 2.5 PPM AI, 48 hrs, 24° C.
[15] = single compound, 5 PPM AI, 48 hrs, 24° C.
[16] = single compound, 10 PPM AI, 48 hrs, 24° C.
[17] = single compound, 20 PPM AI, 48 hrs, 24° C.

Cc1cc(C2=NOC(c3cc(Cl)cc(Cl)c3)(C(F)(F)F)C2)ccc1C(=O)NC1CSC1 (racemic) [A5]
0%: AVERAGE DEAD IN % ([1]; 0.078125 ppm AI) | AVERAGE DEAD IN % ([1]; 0.15625 ppm AI) | AVERAGE DEAD IN % ([1]; 0.3125 ppm AI) | AVERAGE DEAD IN % ([1]; 0.625 ppm AI) | AVERAGE DEAD IN % ([1]; 1.25 ppm AI) | AVERAGE DEAD IN % ([1]; 2.5 ppm AI) | AVERAGE DEAD IN % ([1]; 5 ppm AI) | AVERAGE DEAD IN % ([1]; 10 ppm AI) | AVERAGE DEAD IN % ([1]; 20 ppm AI) | AVERAGE DEAD IN % ([1]; 0.0390625 PPM AI) | AVERAGE DEAD IN % ([1]; 0.078125 PPM AI) | AVERAGE DEAD IN % ([1]; 0.15625 PPM AI) | AVERAGE DEAD IN % ([1]; 0.3125 PPM AI) | AVERAGE DEAD IN % ([1]; 0.625 PPM AI) | AVERAGE DEAD IN % ([1]; 1.25 PPM AI) | AVERAGE DEAD IN % ([1]; 2.5 PPM AI) | AVERAGE DEAD IN % ([1]; 5 PPM AI) | AVERAGE DEAD IN % ([1]; 10 PPM AI) | AVERAGE DEAD IN % ([2]; 0.0390625 ppm AI) | AVERAGE DEAD IN % ([2]; 0.078125 ppm AI) | AVERAGE DEAD IN % ([2]; 0.15625 ppm AI) | AVERAGE DEAD IN % ([2]; 0.3125 ppm AI) | AVERAGE DEAD IN % ([2]; 0.625 ppm AI) | AVERAGE DEAD IN % ([2]; 1.25 ppm AI) | AVERAGE DEAD IN % ([2]; 2.5 ppm AI) | AVERAGE DEAD IN % ([2]; 5 ppm AI) | AVERAGE DEAD IN % ([2]; 10 ppm AI) | AVERAGE DEAD IN % ([2]; 20 ppm AI) | AVERAGE DEAD IN % [3, 8] | AVERAGE DEAD IN % [3, 9] | AVERAGE DEAD IN % [3, 10] | AVERAGE DEAD IN % [3, 11] | AVERAGE DEAD IN % [3, 12] | AVERAGE DEAD IN % ([3]; single compound at 1.25 ppm AI) | AVERAGE DEAD IN % ([3]; single compound at 2.5 ppm AI) | AVERAGE DEAD IN % ([3]; single compound at 5 ppm AI) | AVERAGE DEAD IN % ([3]; single compound at 10 ppm AI) | AVERAGE DEAD IN % ([3]; single compound at 20 ppm AI) | AVERAGE DEAD IN % A5 ([4]; 0.0390625 ppm AI) | AVERAGE DEAD IN % A5 ([4]; 0.078125 ppm AI) | AVERAGE DEAD IN % A5 ([4]; 0.15625 ppm AI) | AVERAGE DEAD IN % A5 ([4]; 0.3125 ppm AI) | AVERAGE DEAD IN % A5 ([4]; 0.625 ppm AI) | AVERAGE DEAD IN % A5 ([4]; 1.25 ppm AI) | AVERAGE DEAD IN % A5 ([4]; 2.5 ppm AI) | AVERAGE DEAD IN % A5 ([4]; 5 ppm AI) | AVERAGE DEAD IN % A5 ([4]; 10 ppm AI) | AVERAGE DEAD IN % [5, 13] | AVERAGE DEAD IN % ([5]; applied alone, 0.078125 ppm AI) | AVERAGE DEAD IN % ([5]; applied alone, 0.15625 ppm AI) | AVERAGE DEAD IN % ([5]; applied alone, 0.3125 ppm AI) | AVERAGE DEAD IN % ([5]; applied alone, 0.625 ppm AI) | AVERAGE DEAD IN % ([5]; applied alone, 1.25 ppm AI) | AVERAGE DEAD IN % ([5]; applied alone, 2.5 ppm AI) | AVERAGE DEAD IN % ([5]; applied alone, 5 ppm AI) | AVERAGE DEAD IN % ([5]; applied alone, 10 ppm AI) | AVERAGE DEAD IN % ([5]; applied alone, 20 ppm AI) | AVERAGE DEAD IN % ([5]; single compound at 2.5 ppm AI) | AVERAGE DEAD IN % [6, 8] | AVERAGE DEAD IN % [6, 9] | AVERAGE DEAD IN % [6, 10] | AVERAGE DEAD IN % [6, 11] | AVERAGE DEAD IN % [6, 12] | AVERAGE DEAD IN % ([6]; single compound at 1.25 ppm AI) | AVERAGE DEAD IN % ([6]; single compound at 2.5 ppm AI) | AVERAGE DEAD IN % ([6]; single compound at 5 ppm AI) | AVERAGE DEAD IN % ([6]; single compound at 10 ppm AI) | AVERAGE DEAD IN % ([6]; single compound at 20 ppm AI) | AVERAGE DEAD IN % ([7]; alone, 1.25 PPM AI) | AVERAGE DEAD IN % ([7]; alone, 2.5 PPM AI) | AVERAGE DEAD IN % ([7]; alone, 5 PPM AI) | AVERAGE DEAD IN % ([7]; alone, 10 PPM AI) | AVERAGE DEAD IN % ([7]; alone, 20 PPM AI) | AVERAGE DEAD IN % ([7]; single compound, 0.625 PPM AI, 48 hrs, 24° C.) | AVERAGE DEAD IN % ([7]; single compound, 1.25 PPM AI, 48 hrs, 24° C.) | AVERAGE DEAD IN % [7, 14] | AVERAGE DEAD IN % [7, 15] | AVERAGE DEAD IN % [7, 16] | AVERAGE DEAD IN % [7, 17]

Cc1cc(C2=NOC(c3cc(Cl)cc(Cl)c3)(C(F)(F)F)C2)ccc1C(=O)NC1C[S+]([O-])C1 (stereo not shown) [A6]
0%: AVERAGE DEAD IN % ([1]; 0.0390625 PPM AI) | AVERAGE DEAD IN % ([1]; 0.078125 PPM AI) | AVERAGE DEAD IN % ([1]; 0.15625 PPM AI) | AVERAGE DEAD IN % ([1]; 0.3125 PPM AI) | AVERAGE DEAD IN % ([1]; 0.625 PPM AI) | AVERAGE DEAD IN % ([1]; 1.25 PPM AI) | AVERAGE DEAD IN % ([1]; 2.5 PPM AI) | AVERAGE DEAD IN % ([1]; 5 PPM AI) | AVERAGE DEAD IN % ([1]; 10 PPM AI) | AVERAGE DEAD IN % ([1]; 20 PPM AI) | AVERAGE DEAD IN % ([2]; 0.078125 ppm AI) | AVERAGE DEAD IN % ([2]; 0.15625 ppm AI) | AVERAGE DEAD IN % ([2]; 2.5 ppm AI) | AVERAGE DEAD IN % ([2]; 5 ppm AI) | AVERAGE DEAD IN % ([2]; 10 ppm AI) | AVERAGE DEAD IN % ([2]; 20 ppm AI) | AVERAGE DEAD IN % [3, 8] | AVERAGE DEAD IN % [3, 9] | AVERAGE DEAD IN % [3, 10] | AVERAGE DEAD IN % [3, 11] | AVERAGE DEAD IN % [3, 12] | AVERAGE DEAD IN % ([3]; single compound at 1.25 ppm AI) | AVERAGE DEAD IN % ([3]; single compound at 2.5 ppm AI) | AVERAGE DEAD IN % ([3]; single compound at 5 ppm AI) | AVERAGE DEAD IN % ([3]; single compound at 10 ppm AI) | AVERAGE DEAD IN % ([3]; single compound at 20 ppm AI) | AVERAGE DEAD IN % ([4]; 0.3125 ppm AI) | AVERAGE DEAD IN % ([4]; 0.625 ppm AI) | AVERAGE DEAD IN % ([4]; 1.25 ppm AI) | AVERAGE DEAD IN % ([4]; 2.5 ppm AI) | AVERAGE DEAD IN % ([4]; 5 ppm AI) | AVERAGE DEAD IN % ([4]; 10 ppm AI) | AVERAGE DEAD IN % ([4]; 20 ppm AI) | AVERAGE DEAD IN % A6 ([4]; 0.0390625 ppm AI) | AVERAGE DEAD IN % A6 ([4]; 0.078125 ppm AI) | AVERAGE DEAD IN % A6 ([4]; 0.15625 ppm AI) | AVERAGE DEAD IN % A6 ([4]; 0.3125 ppm AI) | AVERAGE DEAD IN % A6 ([4]; 0.625 ppm AI) | AVERAGE DEAD IN % A6 ([4]; 1.25 ppm AI) | AVERAGE DEAD IN % A6 ([4]; 2.5 ppm AI) | AVERAGE DEAD IN % A6 ([4]; 5 ppm AI) | AVERAGE DEAD IN % A6 ([4]; 10 ppm AI) | AVERAGE DEAD IN % A6 ([4]; 20 ppm AI) | AVERAGE DEAD IN % [5, 13] | AVERAGE DEAD IN % ([5]; applied alone, 0.078125 ppm AI) | AVERAGE DEAD IN % ([5]; applied alone, 0.15625 ppm AI) | AVERAGE DEAD IN % ([5]; applied alone, 0.3125 ppm AI) | AVERAGE DEAD IN % ([5]; applied alone, 0.625 ppm AI) | AVERAGE DEAD IN % ([5]; applied alone, 1.25 ppm AI) | AVERAGE DEAD IN % ([5]; applied alone, 2.5 ppm AI) | AVERAGE DEAD IN % ([5]; applied alone, 5 ppm AI) | AVERAGE DEAD IN % ([5]; applied alone, 10 ppm AI) | AVERAGE DEAD IN % ([5]; applied alone, 20 ppm AI) | AVERAGE DEAD IN % [6, 9] | AVERAGE DEAD IN % [6, 10] | AVERAGE DEAD IN % [6, 11] | AVERAGE DEAD IN % [6, 12] | AVERAGE DEAD IN % ([6]; single compound at 1.25 ppm AI) | AVERAGE DEAD IN % ([6]; single compound at 2.5 ppm AI) | AVERAGE DEAD IN % ([6]; single compound at 5 ppm AI) | AVERAGE DEAD IN % ([6]; single compound at 10 ppm AI) | AVERAGE DEAD IN % ([6]; single compound at 20 ppm AI) | AVERAGE DEAD IN % [7, 14] | AVERAGE DEAD IN % [7, 15] | AVERAGE DEAD IN % [7, 16] | AVERAGE DEAD IN % [7, 17]
